Data on one compound can be found in BindingDB's records for patent US20240101544 (2024).

Test [1] has as its target Glutaminyl-peptide cyclotransferase-like protein (Homo sapiens, UniProt Q9NXS2). Briefly: QPCTL Enzymatic Activity Assay. How it is done: QPCTL activity was measured in a coupled-enzyme assay using the QPCTL substrate, glutamine-7-amido-4-methylcoumarin (H-Gln-AMC, Bachem), which is converted to pyroglutamyl-AMC by QPCTL. Pyroglutamyl-AMC is then converted to the fluorescent molecule, AMC, by incubation with the human enzyme pyroglutamyl peptidase-1. […] Final concentrations of DMSO and test compounds were 2% and 30-100 μM, respectively. Following the incubation, H-Gln-AMC substrate was diluted in assay buffer and added to each well for a final concentration of 10 μM. The reaction was incubated for 60 min at 37° C., before stopping it by boiling at 100° C. for 5 minutes and cooling the plate at 4° C. for 3 minutes. […] Following incubation, the fluorescence was measured with a plate reader using excitation at 380 nm and emission at 460 nm.

The target in test [2] is Glutaminyl-peptide cyclotransferase (Homo sapiens, UniProt Q16769). Briefly: QPCT Enzymatic Activity Assay. How it is done: QPCT activity was measured in a coupled-enzyme assay using the QPCT substrate, glutamine-7-amido-4-methylcoumarin (H-Gln-AMC, Bachem), which is converted to pyroglutamyl-AMC by QPCT. Pyroglutamyl-AMC is then converted to the fluorescent molecule, AMC, by incubation with the human enzyme pyroglutamyl peptidase-1 (PGPEP-1). […] Following the incubation, H-Gln-AMC substrate was diluted in assay buffer and added to each well for a final concentration of 10 μM. The reaction was incubated for 60 min at 37° C., before stopping it by boiling at 100° C. for 5 minutes and cooling the plate at 4° C. for 3 minutes. […] Following incubation, the fluorescence was measured with a plate reader using excitation at 380 nm and emission at 460 nm.
Glutaminyl-peptide cyclotransferase, sequence (Q16769 whole entry): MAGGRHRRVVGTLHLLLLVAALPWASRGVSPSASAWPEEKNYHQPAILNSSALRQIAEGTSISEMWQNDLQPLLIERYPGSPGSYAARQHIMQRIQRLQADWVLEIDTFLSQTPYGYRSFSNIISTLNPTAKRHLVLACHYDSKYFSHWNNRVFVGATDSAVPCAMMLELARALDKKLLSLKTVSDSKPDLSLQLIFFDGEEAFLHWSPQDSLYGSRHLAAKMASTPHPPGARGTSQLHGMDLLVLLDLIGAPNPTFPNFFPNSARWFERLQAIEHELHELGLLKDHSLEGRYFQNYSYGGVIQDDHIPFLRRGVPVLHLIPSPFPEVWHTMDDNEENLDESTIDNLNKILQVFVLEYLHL

Glutaminyl-peptide cyclotransferase-like protein, sequence (Q9NXS2 whole entry): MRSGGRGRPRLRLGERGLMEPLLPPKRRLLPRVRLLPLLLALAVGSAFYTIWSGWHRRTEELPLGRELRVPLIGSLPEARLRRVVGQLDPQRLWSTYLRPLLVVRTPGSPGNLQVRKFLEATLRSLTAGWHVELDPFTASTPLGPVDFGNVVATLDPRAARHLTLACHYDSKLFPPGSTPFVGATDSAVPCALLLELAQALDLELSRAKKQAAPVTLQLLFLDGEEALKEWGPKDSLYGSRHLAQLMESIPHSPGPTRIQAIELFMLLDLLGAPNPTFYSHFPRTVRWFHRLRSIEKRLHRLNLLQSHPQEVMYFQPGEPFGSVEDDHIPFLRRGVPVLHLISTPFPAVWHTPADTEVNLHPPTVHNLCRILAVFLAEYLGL

As to `Cn1cncc1C1CCN(c2c(C#N)ccnc2-c2ccc(F)nc2)CC1` [US20240101544, Example 134], the IC50 in test [1] and in test [2] was below 100 nM in each case.

What is called IC50 is the concentration needed to halve the response being measured. A high value points to lower potency.
